Several values for one entry are separate records, joined by “and”; a condition that tells them apart may be missing. Identical values can stand only once.
Legend:
[1] = test system: five PZA resistant M. tuberculosis strains; test: microbe, parasite or virus in culture; format: cell-based; conditions: Mycobacterium tuberculosis, 504 h, pH 6.8, read-out: MIC for PZA
[2] = test system: M. tuberculosis PZA-resistant strains #6, #78, #98, #106, #186; format: cell-based; conditions: PZA-S1-Plus agar, pH 6.8, 400, 800 and 1600 μg PZA
[3] = test system: PZA-resistant strain (PZA^R) (#6 PncA mutation L159P); format: cell-based, Mycobacterium tuberculosis; conditions: pH 6.8
[4] = test system: Z6 PZA-resistant strain with mutation in pncA gene; format: cell-based, Mycobacterium tuberculosis
[5] = test system: Z98 PZA-resistant strain with mutation in pncA gene; format: cell-based, Mycobacterium tuberculosis
[6] = test system: Z186 PZA-resistant strain with mutation in pncA gene; format: cell-based, Mycobacterium tuberculosis
[7] = test system: ORA48 PZA-resistant strain with mutation in panD gene; format: cell-based, Mycobacterium tuberculosis
[8] = test system: ORA76 PZA-resistant strain with mutation in panD gene; format: cell-based, Mycobacterium tuberculosis
[9] = test system: ORA136 PZA-resistant strain with mutation in panD gene; format: cell-based, Mycobacterium tuberculosis

## NC(=O)c1cnccn1 [PZA, Pyrazinamide]
[1]
  MIC: > 800 µg/mL
[2]
  growth inhibition, paper disk: no inhibition
[3]
  PZA concentration at which the resistant strain grew: 800 µg/mL
[4]
  MIC of PZA: greater than 300 μg/ml
  Percentage of CFU to Z 0: 9.33% and 10.00% and 8.65% and 12.47%
[5]
  MIC of PZA: greater than 300 μg/ml
  Percentage of CFU to Z 0: 6.76% and 6.62% and 5.15% and 5.81%
[6]
  MIC of PZA: greater than 300 μg/ml
  Percentage of CFU to Z 0: 1.07% and 1.09% and 1.01% and 1.08%
[7]
  MIC of PZA: greater than 300 μg/ml
  Percentage of CFU to Z 0: 3.74% and 3.48% and 3.39% and 3.00%
[8]
  MIC of PZA: greater than 300 μg/ml
  Percentage of CFU to Z 0: 2.26% and 1.83% and 2.33% and 2.31%
[9]
  MIC of PZA: greater than 300 μg/ml
  Percentage of CFU to Z 0: 3.70% and 4.19% and 3.37% and 2.56%

Source: patent publication US20240148723A1, “MYCOBACTERIUM TUBERCULOSIS COMPOSITIONS AND METHODS” (priority 2021, published 2024)
